Test results: patent US11299493B2, “Heterocyclic compounds and uses thereof” (NUVATION BIO INC., priority 2017, dated 2022)

Assays:
[1] = test system: A427 cells; assay: Cytotoxicity assay (resazurin) in A427 cells; assay type: cell-based; details: Homo sapiens, read-out: Cell Viability IC50 A427
Description: (§1) Cells were allowed to grow at 37° C. for 24 hr in 5% CO2 environment (culture conditions) in a Nuaire incubator (humidified). Serially diluted test compounds (100 μL) within the desired testing concentration ranges were added to the culture plate were further incubated in culture conditions for 72 hr and 96 hr for A427 and A549 respectively. The experiment was terminated at the designated incubation time by replacing the medium with 100 μL of 1 mM of resazurin (R7017; Sigma) prepared in respective culture medium, and the plates were further incubated in culture conditions for 4-6 hr. Fluorescence was recorded using a multimodal plate reader (Biotek Synergy Neo) at an excitation wavelength of 535 nm and emission wavelength of 590 nm to obtain relative fluorescence units. Data analysis was done by subtracting the background fluorescence (only medium blank) value from each reading and then normalizing with the vehicle control (DMSO treated cells) to obtain percent survival/proliferation. Percent survival was then subtracted by 100 to get the percent inhibition of proliferation which was used to calculate IC50 values.

[2] = test system: A549 cells; assay: Cytotoxicity assay (resazurin) in A549 cells; assay type: cell-based; details: Homo sapiens, A549, 96 hr, read-out: Cell Viability IC50 A549
Description: as §1

[3] = test system: A427 cells; assay: Cell proliferation assay (Cell Titer-Glo) in A427 cells; assay type: cell-based; details: Homo sapiens, A-427, typically 72 h
Description: (§2) The effects of test compounds were studied in five cell lines with various histotypes. The cancer cells (Table 4) were harvested during the logarithmic growth period and counted. Adjust cell concentrations to the appropriated number with respective medium, and add 90 μL cell suspensions to 96-well plates. After cells were seeded, the plates were shaken gently to distribute cells evenly and incubated at 37° C., 5% CO2 on day 1.
(§3) Cell viability data were plotted using GraphPad Prism (version 5, GraphPad Software, Inc., San Diego, Calif.). In addition, a nonlinear regression model with a sigmoidal dose response and variable slope within GraphPad Prism was used to calculate the IC50 value of individual test compounds.

[4] = test system: NCI-H460 cells; assay: Cell proliferation assay (Cell Titer-Glo) in NCI-H460 cells; assay type: cell-based; details: Homo sapiens, typically 72 h
Description: as §2
(§4) Cells were treated with test compounds at 9 concentrations within a desired concentration range (e.g. 1.5 nM-10 μM) on day 2 by series diluting the test compound stock solution (10 mM in DMSO) with culture medium. Cell viability was assessed by Cell Titer-Glo® as recommended by Promega (Cat. No.: G7572, Promega) typically 72 h post-treatment.
as §3

[5] = test system: LoVo cells; assay: Cell proliferation assay (Cell Titer-Glo) in LoVo cells; assay type: cell-based; details: Homo sapiens, typically 72 h
Description: as §2, §4, §3

[6] = target: WEE1 kinase enzyme (Homo sapiens (Human), UniProt P30291); assay: WEE1 IC50 determination, LanthaScreen Terbium Labeled TR-FRET kinase assay; assay type: biochemical; details: WEE1 enzyme 1 nM, ATP 10 μM, 1 h
Description: IC50 values of compounds against WEE1 kinase enzyme were determined by LanthaScreen™ Terbium Labeled TR-FRET assay. […] After 1 h, […] stop solution containing Terbium labeled antibody (4 nM) (#PV3529, Invitrogen, Life Technologies Grand Island, N.Y.) and EDTA (#E5134, Sigma, St-Louis, Mo.) (20 mM) in TR-FRET dilution buffer (#PV3574, Invitrogen, Life Technologies Grand Island, N.Y.) was added. Readings were taken in a Synergy Neo Plate reader (BioTek, Winooski) at single excitation of 340 nm and Dual emission at 495 nm and 520 nm respectively.
The % activity of test samples was calculated as (Sample−Min)*100/(Max−Min). [Max: DMSO control, complete reaction with enzyme & DMSO and Min: No enzyme & DMSO].

[7] = test system: HCT-116 cells; assay: Cell proliferation assay (Cell Titer-Glo) in HCT-116 cells; assay type: cell-based; details: Homo sapiens; HCT-116, Cell Titer-Glo, typically 72 h; read-out: IC50 HCT116
Description: as §2, §4, §3

[8] = test system: A2780 cells; assay: Cell proliferation assay (Cell Titer-Glo) in A2780 cells; assay type: cell-based; details: Homo sapiens, typically 72 h
Description: as §2, §4, §3

[9] = test system: A427 cells; assay: Activity of compounds in combination with cisplatin in A427 cells (resazurin); assay type: cell-based; details: Homo sapiens, A-427, 24 hr 2.5 μM cisplatin
Description: The activity of test compounds in combination with cisplatin in A427 cells was determined. Cells were seeded in a 96 well plate at 2000 cells/well. The next day, cells were treated with 2.5 μM cisplatin or vehicle (1×PBS) and incubated in culture conditions (37° C., 5% CO2) for 24 hr. Following the incubation, culture medium was replaced with medium containing test compound and cisplatin/vehicle, and cells were further incubated in culture conditions for another 72 hr. By this procedure, cisplatin was either continued or discontinued after an initial 24-hr incubation. Addition of test compound was in concentrations needed to obtain an 8-point dose response curve, with concentrations prepared by 3-fold dilution. The assay was terminated upon addition of resazurin, incubation for 4 hr in culture conditions and measurement of fluorescence at excitation and emission wavelengths of 535 and 590 nm, respectively.

[10] = test system: As-Pc-1 cells; assay: Cytotoxicity assay (resazurin) in As-Pc-1 cells; assay type: cell-based; details: Homo sapiens, ASPC1; As-Pc-1, resazurin; read-out: Cell Viability IC50 As-Pc-1
Description: [The source words this procedure for another cell line and reports this cell line under the same test.] as §1, with “A549 (CCL-185; ATCC) and A427 (HTB-53; ATCC), both lung epithelial cell lines were seeded in their respective medium (DMEM/MEM, 10569044/41090101; Gibco) at a cell count of 1500 cells per 100 μL per well in a 96 well edge plate (167425; ThermoFisher). Cells” for “Cells”, “values. Potency of compounds in other cell lines (As-Pc-1, Panc 10.05, A172) was determined in an analogous manner.” for “values.”

[11] = test system: A172 cells; assay: Cytotoxicity assay (resazurin) in A172 cells; assay type: cell-based; details: Homo sapiens, A 172, read-out: Cell Viability IC50 A172
Description: [The source words this procedure for another cell line and reports this cell line under the same test.] as §1, with “A549 (CCL-185; ATCC) and A427 (HTB-53; ATCC), both lung epithelial cell lines were seeded in their respective medium (DMEM/MEM, 10569044/41090101; Gibco) at a cell count of 1500 cells per 100 μL per well in a 96 well edge plate (167425; ThermoFisher). Cells” for “Cells”, “values. Potency of compounds in other cell lines (As-Pc-1, Panc 10.05, A172) was determined in an analogous manner.” for “values.”

[12] = test system: Panc 10.05 cells; assay: Cytotoxicity assay (resazurin) in Panc 10.05 cells; assay type: cell-based; details: Homo sapiens, Panc1005; Panc 10.05, resazurin; read-out: Cell Viability IC50 Panc 10.05
Description: [The source words this procedure for another cell line and reports this cell line under the same test.] as §1, with “A549 (CCL-185; ATCC) and A427 (HTB-53; ATCC), both lung epithelial cell lines were seeded in their respective medium (DMEM/MEM, 10569044/41090101; Gibco) at a cell count of 1500 cells per 100 μL per well in a 96 well edge plate (167425; ThermoFisher). Cells” for “Cells”, “values. Potency of compounds in other cell lines (As-Pc-1, Panc 10.05, A172) was determined in an analogous manner.” for “values.”

[13] = test system: AsPC-1 cells; assay: Synergistic activity with gemcitabine, combination matrix method, AsPC-1 cells; assay type: cell-based; details: fractional effect level of about 0.5, Chou-Talalay
Description: (§5) Determination of synergistic activity of compounds in combination with a chemotherapeutic drug on cell viability is determined by a combination matrix method. Chemotherapeutics that may be used in the combination include but are not limited to a platinum-based chemotherapeutic agent, a DNA alkylating agent, a topoisomerase inhibitor, an anthracycline, a histone deacetylase inhibitor, a bromodomain inhibitor, a kinase inhibitor, a mTOR inhibitor, a PARP inhibitor, an ATM inhibitor, an ATR inhibitor, a Wee1 inhibitor, a proteasome inhibitor, and a nucleotide analog or precursor analog. Cancer cell lines that may be used in the assay include but are not limited to lung cancer, leukemia, lymphoma, multiple myeloma, ovarian cancer, breast cancer, pancreatic cancer, stomach cancer, colon cancer, liver cancer, head and neck cancer, kidney cancer, skin cancer and brain cancer cell lines. Cells are seeded in a 96-well plate and incubated at 37° C. in cell culture conditions for 24 hr. […] Measurement of fluorescence at an excitation and emission wavelength of 535 and 590 nm respectively. Synergy is evaluated with the combination index (CI) value using the Chou-Talalay method in which additive effect (CI=1), synergism (CI<1), and antagonism (CI>1) in drug combinations is determined (Chou T C. Cancer Res 2010; 70:440-6.). […]

[14] = test system: Panc 10.05 cells; assay: Synergistic activity with gemcitabine, combination matrix method, Panc 10.05 cells; assay type: cell-based; details: fractional effect level of about 0.5, Chou-Talalay
Description: as §5

[15] = then compound + cisplatin 72 hr, read-out: Cell viability IC50 in A427 cells with 2.5 μM cisplatin: 24 hr cisplatin then compound + cisplatin
[16] = then compound alone 72 hr, read-out: Cell viability IC50 in A427 cells with 2.5 μM cisplatin: 24 hr cisplatin then compound

Chain of WEE1 kinase enzyme (P30291 whole entry): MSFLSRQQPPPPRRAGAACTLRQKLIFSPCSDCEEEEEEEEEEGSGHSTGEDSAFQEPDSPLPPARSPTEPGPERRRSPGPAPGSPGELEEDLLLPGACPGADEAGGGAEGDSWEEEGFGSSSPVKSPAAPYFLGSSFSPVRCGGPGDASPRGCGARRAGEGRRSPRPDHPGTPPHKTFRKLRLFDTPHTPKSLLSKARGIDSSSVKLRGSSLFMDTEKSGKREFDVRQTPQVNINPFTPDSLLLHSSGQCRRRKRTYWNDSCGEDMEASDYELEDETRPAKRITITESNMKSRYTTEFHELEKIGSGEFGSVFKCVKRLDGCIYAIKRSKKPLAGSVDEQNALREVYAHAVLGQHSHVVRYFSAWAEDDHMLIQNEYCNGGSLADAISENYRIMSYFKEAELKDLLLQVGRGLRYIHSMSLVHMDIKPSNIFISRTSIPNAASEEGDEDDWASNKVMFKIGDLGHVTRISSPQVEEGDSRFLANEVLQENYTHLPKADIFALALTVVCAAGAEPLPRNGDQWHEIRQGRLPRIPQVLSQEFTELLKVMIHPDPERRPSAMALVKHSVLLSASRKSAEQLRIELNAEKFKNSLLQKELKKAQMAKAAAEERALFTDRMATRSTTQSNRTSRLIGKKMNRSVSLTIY

Structure (SMILES) | IC50 [2] | IC50 [3] | IC50 [6] | IC50 ([1]; A-427, 72 h, A427, 72 hr) | IC50 [10] | IC50 [11] | IC50 [12] | further results
C=CCn1c(=O)c2cnc(Nc3ccc4c(c3)CNCC4)nc2n1-c1cccc(C(C)(C)O)n1 [Example 1.1] | 460 nM | 64 nM | 2.4 nM |  |  |  |  | IC50 ([1]; A-427, A427, 72 hr): 95 nM; IC50 [4]: > 10000 nM; IC50 [5]: 258 nM; IC50 [7]: 1040 nM
C=CCn1c(=O)c2cnc(Nc3ccc4c(c3)CN(C(=O)CO)CC4)nc2n1-c1cccc(C(C)(C)O)n1 [Example 1.2] | 842 nM | 269 nM | 4 nM | 330 nM |  |  |  | 
C=CCn1c(=O)c2cnc(Nc3ccc4c(c3)CN(C(=O)C(C)(C)O)CC4(C)C)nc2n1-c1cccc(C(C)(C)O)n1 [Example 1.3] | 1220 nM | 483 nM | < 2 nM | 620 nM |  |  |  | 
C=CCn1c(=O)c2cnc(Nc3ccc4c(c3)CN(C(=O)CO)CC4(C)C)nc2n1-c1cccc(C(C)(C)O)n1 [Example 1.6] | 972 nM | 277 nM | 3.1 nM | 355 nM |  |  |  | 
CCn1c(=O)c2cnc(Nc3ccc4c(c3)CNCC4)nc2n1-c1cccc(C(C)(C)O)n1 [Example 1.7] | 660 nM |  | 3 nM | 800 nM |  |  |  | IC50 [8]: 1100 nM
CCn1c(=O)c2cnc(Nc3ccc4c(c3)CCNC4)nc2n1-c1cccc(C(C)(C)O)n1 [Example 1.12] | 1060 nM |  | 4 nM | 1720 nM |  |  |  | IC50 [9, 15]: 70 nM; IC50 [9, 16]: 120 nM
CCn1c(=O)c2cnc(Nc3ccc4c(c3)CN(C)CC4(C)C)nc2n1-c1cccc(C(C)(C)O)n1 [Example 1.16] | 1550 nM |  | 4.5 nM | 1420 nM |  |  |  | IC50 [9, 15]: < 14 nM; IC50 [9, 16]: 100 nM
CC(C)n1c(=O)c2cnc(Nc3ccc4c(c3)CCNC4)nc2n1-c1ccnc(C(C)(C)C)c1 [Example 1.138] | 2420 nM |  | 6 nM | 993 nM | 200 nM | 4090 nM | 2820 nM | combination index with gemcitabine [13]: less than 1; combination index with gemcitabine [14]: less than 1
CC(C)(F)c1cccc(-n2c3nc(Nc4ccc5c(c4)CCNC5)ncc3c(=O)n2C2CC2)n1 [Example 1.146] | 6680 nM |  | 9 nM | 965 nM | 920 nM | 6820 nM | 5700 nM | 
CC(C)(C)c1cc(-n2c3nc(Nc4ccc5c(c4)CCNC5(C)C)ncc3c(=O)n2C2CC2)ccn1 [Example 2.182] | 7750 nM |  | 62 nM | 720 nM | 1740 nM | 10600 nM | 8600 nM | 
CC(C)n1c(=O)c2cnc(Nc3ccc4c(c3)CCNC4)nc2n1-c1ccnc(C(C)(C)C)n1 [Example 2.183] | 1800 nM |  | 4 nM | 135 nM | 95 nM | 1640 nM | 805 nM | 
CC(C)n1c(=O)c2cnc(Nc3ccc4c(c3)CNCC4)nc2n1-c1ccnc(C(C)(C)C)n1 [Example 2.184] | 655 nM |  | 2 nM | 90 nM | 85 nM | 985 nM | 545 nM | 
CC(C)n1c(=O)c2cnc(Nc3ccc4c(c3)CCNC4)nc2n1-c1ccn(C2CC2)n1 [Example 2.188] | 910 nM |  | 53 nM | 815 nM | 965 nM | 1520 nM | 3100 nM | 
